Measured values as given in PubChem BioAssay (NCI).
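Five compound concentrations were applied to cells in 96-well plates for 48 hours; endpoints were derived by simple linear interpolation of the resulting dose-response curve. Definition used: TGI = concentration required for complete inhibition of growth.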

Columns and labels:
Assay in all cases: growth of human tumour cells (NCI), 48 h
RXF-631 renal = tested on: RXF-631 renal
786-0 renal = tested on: 786-0 renal
DLD-1 colon = tested on: DLD-1 colon
SW-620 colon = tested on: SW-620 colon
SF-268 CNS = tested on: SF-268 CNS
SNB-78 CNS = tested on: SNB-78 CNS
RPMI-8226 leukemia = tested on: RPMI-8226 leukemia
HCC-2998 colon = tested on: HCC-2998 colon
SK-MEL-2 melanoma = tested on: SK-MEL-2 melanoma
KM20L2 colon = tested on: KM20L2 colon
UACC-257 melanoma = tested on: UACC-257 melanoma
M19-MEL melanoma = tested on: M19-MEL melanoma
A549 NSCLC = tested on: A549 NSCLC
NCI-H460 lung = tested on: NCI-H460 lung
OVCAR-4 ovarian = tested on: OVCAR-4 ovarian
DMS 273 small cell lung = tested on: DMS 273 small cell lung
CCRF-CEM leukemia = tested on: CCRF-CEM leukemia
NCI-H23 lung = tested on: NCI-H23 lung
MALME-3M melanoma = tested on: MALME-3M melanoma
HT29 colon = tested on: HT29 colon
IGROV1 ovarian = tested on: IGROV1 ovarian
KM12 colon = tested on: KM12 colon
SK-MEL-5 melanoma = tested on: SK-MEL-5 melanoma
TK-10 renal = tested on: TK-10 renal
DMS 114 small cell lung = tested on: DMS 114 small cell lung
HL-60(TB) leukemia = tested on: HL-60(TB) leukemia
M14 melanoma = tested on: M14 melanoma
LOX IMVI melanoma = tested on: LOX IMVI melanoma
XF 498 CNS = tested on: XF 498 CNS
U251 CNS = tested on: U251 CNS
OVCAR-8 ovarian = tested on: OVCAR-8 ovarian
UACC-62 melanoma = tested on: UACC-62 melanoma
LXFL 529 NSCLC = tested on: LXFL 529 NSCLC
SR leukemia = tested on: SR leukemia
SNB-19 CNS = tested on: SNB-19 CNS
HOP-92 NSCLC = tested on: HOP-92 NSCLC
SK-MEL-28 melanoma = tested on: SK-MEL-28 melanoma
K-562 leukemia = tested on: K-562 leukemia
SF-539 CNS = tested on: SF-539 CNS
SF-295 CNS = tested on: SF-295 CNS
OVCAR-5 ovarian = tested on: OVCAR-5 ovarian
HOP-18 NSCLC = tested on: HOP-18 NSCLC
MOLT-4 leukemia = tested on: MOLT-4 leukemia
NCI-H522 lung = tested on: NCI-H522 lung
COLO 205 colon = tested on: COLO 205 colon
RXF 393 renal = tested on: RXF 393 renal
CAKI-1 renal = tested on: CAKI-1 renal
HOP-62 NSCLC = tested on: HOP-62 NSCLC
EKVX NSCLC = tested on: EKVX NSCLC
UO-31 renal = tested on: UO-31 renal
ACHN renal = tested on: ACHN renal
OVCAR-3 ovarian = tested on: OVCAR-3 ovarian
SK-OV-3 ovarian = tested on: SK-OV-3 ovarian
HCT-116 colon = tested on: HCT-116 colon
SNB-75 CNS = tested on: SNB-75 CNS
SN12C renal = tested on: SN12C renal
A498 renal = tested on: A498 renal
NCI-H226 lung = tested on: NCI-H226 lung
HCT-15 colon = tested on: HCT-15 colon

Measured: TGI

Cc1ccc(NC(=O)CC(=O)n2nc(-c3ccccc3)c(N=Nc3ccccc3[N+](=O)[O-])c2-c2ccccc2)cc1
not listed: A498 renal | NCI-H226 lung | HCT-15 colon
> 100 µM: all other assays above

CCOC(=O)c1sc2c(sc(=O)n2-c2ccccc2)c1O
not listed: SW-620 colon | RPMI-8226 leukemia
> 100 µM: all other assays above

CN(c1nc(=[N+](C)C)ss1)C1CCCCC1
not listed: COLO 205 colon | OVCAR-3 ovarian
> 100 µM: all other assays above
